Test results from patent US20110111976A1, “MICRORNA BIOMARKERS OF TISSUE INJURY” (priority 2008, published 2011).
“And” between values parts separate entries of the source, which are not always exact repeats. Identical values can stand only once.

Key:
Sprague-Dawley rats [1] = assay: Liver histopathology scores of toxicant-treated rats; format: in vivo, rat; settings: TMPD-treated rats
Method: (§1) To follow up on the initial results shown in Example 2, blood samples from 44 individual rats that had been treated with varying doses of CBrCl3, CCl4 (another liver toxicant), or TMPD were evaluated using qPCR of miR-122 and miR-133. In addition, data from histopathology and a panel of standard biomarkers (ALT, AST, CK, skTnI, etc.) were also available for these same individual rats and were used to compare the results from microRNA assays with the standard histopathology and protein biomarkers.
(§2) Animals Male and female Sprague-Dawley rats were obtained from Charles River Laboratories, Inc. (Raleigh, N.C.). The rats were approximately seven to eight weeks of age and weighed from 125 to 325 grams at the start of the study. The animals were acclimated for approximately one week and randomized into treatment and control groups. During the toxicity studies targeting liver, the animals were maintained on a caloric-restricted diet, and fasted overnight prior to necropsy. Doses were different for each model compound tested and were calculated based on animal body weight. For the compounds, routes of administration, dose groups, and time points, see the below compound section.
(§3) Liver Toxicant • Trichlorobromomethane (CCl3Br) • Doses: 0.03, 0.1 ml/kg • Dosing: 100% liquid paraffin by oral gavage • Animals: Sprague Dawley Male Rats • Time Point: CCl3Br Plasma (Days 2 & 4) and Controls (4 controls, 3 samples per group, 100 μl each) • Carbon Tetrachloride (CCl4) • Doses: 0.03, 0.1, 0.3 ml/kg • Dosing: 100% liquid paraffin by oral gavage • Animals: Sprague Dawley Male Rats • Time Point: CCl4 Plasma (Days 2) and Controls (4 samples per group, 100 μl each)

Sprague-Dawley rats [2] = assay: Muscle histopathology (quad, soleus) of TMPD-treated rats; format: in vivo, rat; design: key: 1 = very slight; 2 = slight or small; 3 = moderate; 4 = marked; 5 = severe tissue injury; settings: Day 2, individual male rats
Method: as §1, §2
(§4) Skeletal Muscle Toxicant • 2,3,5,6-tetramethyl-p phenylenediamine (TMPD) • Doses: 2, 4 mg/kg bid • Dosing: 0.9% NaCl by subcutaneous injection • Animals: Sprague Dawley Male Rats • Time Points: TMPD Plasma (Day 2) and Controls (5 samples per group, […] pooled=500 μl total).

Sprague-Dawley rats [3] = assay: Clinical chemistry (AST, ALT, CK) in blood plasma of toxicant-treated rats; format: in vivo, rat; settings: for ALT / AST / CK: Day 2, plasma, individual male rats
Method: as §1, §2, §4, §3

Sprague-Dawley rats [4] = assay: Pooled sample study: miR-122 in blood plasma of toxicant-treated rats by qPCR; format: in vivo; settings: pooled rat plasma (5 samples), cerivastatin 1.0 mg/kg/day oral Day 14, CBrCl3 0.1 ml/kg oral Days 2 & 4, TMPD 6 mg/kg bid s.c. Day 3
Method: (§5) To explore the feasibility of detecting miRNA tissue injury biomarkers in plasma, a pilot study was performed in which pooled blood plasma samples from rat toxicology studies were analyzed using a qPCR-based assay (Raymond et at, 2005, RNA 11:1737; WO 2006/081282). The miRNAs miR-122 and miR-133 were chosen for quantification because they are extremely abundant and specific to liver and muscle, respectively (FIG. 1). Stored plasma samples from rats that had previously been treated with a liver damaging agent trichlorobromomethane (CBrCl3) or with one of two muscle damaging agents 2,3,5,6-tetramethyl-p phenylenediamine (TMPD) or cerivastatin) were assayed form miRNA levels using qPCR.
as §2
(§6) Skeletal Muscle Toxicant • 2,3,5,6-tetramethyl-p phenylenediamine (TMPD) • Doses: 6 mg/kg bid • Dosing: 0.9% NaCl by subcutaneous injection • Animals: Sprague Dawley Male Rats • Time Points Day 3, TMPD Plasma (Day 3) and Controls (5 samples, 100 ul each pooled=500 ul total).
(§7) Liver Toxicant • Trichlorbromomethane (CCl3Br) • Doses: 0.1 ml/kg • Dosing: 100% liquid paraffin by oral gavage • Animals: Sprague Dawley Male Rats • Time Point: Day 2, 4 CCl3Br Plasma (Days 2 & 4) and Controls (5 samples, 100 ul each pooled=500 ul total)
(§8) Liver and Muscle Toxicant • Cerivastatin • Doses: 1.0 mg/kg/day • Dosing: 0.5% methylcellulose by oral gavage • Animals: Sprague Dawley Female Rats • Time Point Day 14 Cerivastatin Plasma (Day 14) and Controls (5 samples, 100 ul each pooled=500 μl total)
(§9) Plasma Samples All plasma samples were collected in EDTA tubes at final necropsy from the vena cava. Samples were inverted several times, and centrifuged for 20 minutes at 2,900 RPM at 4° C. Plasma samples were removed and stored at −70° C. Pooled blood plasma samples from rat toxicology studies were analyzed using a qPCR-based assay (Raymond et al, 2005, RNA 11:1737; WO 2006/081282). Control slope and intercept values for miR-122 and miR-133 were calculated from a concentration series of each microRNA added to total yeast RNA and then analyzed using the qPCR assay for each miRNA. The slope and intercept values from the standard curve were used to calculate the amount of each respective miRNA in each sample expressed as the number of miRNA copies per 20 ng of total RNA in each sample. Cycle threshold values (Ct) for each sample were converted to miRNA copy numbers by comparison to standard curves generated using single stranded mature miRNAs and are expressed as copies/20 pg input RNA (approximately equivalent to copies/cell).

Sprague-Dawley rats [5] = assay: Individual sample study: miR-122 in blood plasma of toxicant-treated rats by qPCR; format: in vivo, rat; settings: Day 2, plasma, individual male rats
Method: as §1, §2, §4, §3
as §9, with “are expressed in Table 4 as copies/20” for “are expressed as copies/20”

Sprague-Dawley rats [6] = assay: Individual sample study: miR-133 in blood plasma of toxicant-treated rats by qPCR; format: in vivo, rat; settings: Day 2, plasma, individual male rats
Method: as §1, §2, §4, §3
as §9, with “are expressed in Table 4 as copies/20” for “are expressed as copies/20”

Sprague-Dawley rats [7] = assay: Pooled sample study: miR-133 in blood plasma of toxicant-treated rats by qPCR; format: in vivo; settings: pooled rat plasma (5 samples), cerivastatin 1.0 mg/kg/day oral Day 14, CBrCl3 0.1 ml/kg oral Days 2 & 4, TMPD 6 mg/kg bid s.c. Day 3
Method: as §5, §2, §6, §7, §8, §9

Sprague-Dawley rats [8] = assay: miR-10a in urine of kidney-toxicant-treated rats by qPCR; format: in vivo, rat; settings: Gentamicin 240 mg/kg/day intraperitoneal, individual male rats
Excerpt: as §2, with “targeting kidney,” for “targeting liver,”, “below Test Compound” for “below compound”
Urine Samples Urine samples were collected overnight on either dry or wet ice, aliquoted, and stored at −70° C. […] Urine samples were thawed on ice and about 1 milliliter (ml) of each sample placed into a tube. Each sample was placed in a room temperature speed-vac to reduce sample volume to about 200 microliters (μl). About 1 ml of trizol was added to the viscous concentrated urine solution and RNA extracted using Ambion BlycoBlue and alcohol precipitation.
Samples from rat toxicology studies were analyzed for miRNA levels using a qPCR-based assay (Raymond et al, 2005, RNA 11:1737; WO 2006/081282). Control slope and intercept values for miR-10a was calculated from a concentration series of miR-10a added to total yeast RNA and then analyzed using the qPCR assay. The slope and intercept values from the standard curve were used to calculate the amount of miR-10a in each sample expressed as the number of miRNA copies per 20 ng of total RNA in each sample. Cycle threshold values (Ct) for each sample were converted to miRNA copy numbers by comparison to a standard curve generated using single stranded mature miR-10a and are expressed in Table 7 as copies/20 pg input RNA (approximately equivalent to copies/cell).

Sprague-Dawley rats [9] = assay: Kidney histopathology (proximal tubule overall tissue injury) of toxicant-treated rats; format: in vivo, rat; settings: Gentamicin 240 mg/kg/day intraperitoneal, Day 12, individual male rats
Excerpt: as §2, with “targeting kidney,” for “targeting liver,”, “below Test Compound” for “below compound”

In the case of `Cc1c(C)c(N)c(C)c(C)c1N` [TMPD, 2,3,5,6-tetramethyl-p phenylenediamine], the liver histopathology (Sprague-Dawley rats [1]) is reported as “no liver histopathology has been observed”, the “Muscle Histopathology Quad (Overall Damage)” value (Sprague-Dawley rats [2]; TMPD 2 mg/kg bid subcutaneous) is reported as 0 (4×) and 1 and the “Muscle Histopathology Soleus (Overall Damage)” value (Sprague-Dawley rats [2]; TMPD 2 mg/kg bid subcutaneous) is reported as 0. For the same molecule, the “Muscle Histopathology Quad (Overall Damage)” value (Sprague-Dawley rats [2]; TMPD 4 mg/kg bid subcutaneous) was 1 (3×) and 2 (2×), the “Muscle Histopathology Soleus (Overall Damage)” value (Sprague-Dawley rats [2]; TMPD 4 mg/kg bid subcutaneous) was 1 (3×) and 0 (2×) and the ALT (Sprague-Dawley rats [3]; TMPD 2 mg/kg bid subcutaneous) was 29 U/L and 36 U/L and 37 U/L and 27 U/L and 30 U/L. The AST (Sprague-Dawley rats [3]; TMPD 2 mg/kg bid subcutaneous) was 120 U/L and 164 U/L and 203 U/L and 111 U/L and 167 U/L, the CK (Sprague-Dawley rats [3]; TMPD 2 mg/kg bid subcutaneous) was 424 U/L and 695 U/L and 696 U/L and 450 U/L and 463 U/L and the ALT (Sprague-Dawley rats [3]; TMPD 4 mg/kg bid subcutaneous) was 60 U/L and 133 U/L and 215 U/L and 94 U/L and 56 U/L. The AST (Sprague-Dawley rats [3]; TMPD 4 mg/kg bid subcutaneous) was 357 U/L and 1250 U/L and 1740 U/L and 700 U/L and 501 U/L, the CK (Sprague-Dawley rats [3]; TMPD 4 mg/kg bid subcutaneous) was 363 U/L and 767 U/L and 1252 U/L and 439 U/L and 343 U/L and the ALT versus controls (Sprague-Dawley rats [3]; rats dosed with TMPD, plasma) was “significantly elevated”. The AST versus controls (Sprague-Dawley rats [3]; rats dosed with TMPD, plasma) was “significantly elevated”, the “miR-122 Copies” value (Sprague-Dawley rats [4]; 250 ng total RNA input) was 89353.3 and the “miR-122 Ct Mean” value (Sprague-Dawley rats [4]; 250 ng total RNA input) was 26.2479. The “miR-122 Copies/20 pg” value (Sprague-Dawley rats [4]) was 7.1 Copies/20 pg, the miR-122 (Sprague-Dawley rats [5]; TMPD 2 mg/kg bid subcutaneous) was 2.6 copies/20 pg input RNA and 5.6 copies/20 pg input RNA and 7.3 copies/20 pg input RNA and 0.8 copies/20 pg input RNA and 2.2 copies/20 pg input RNA and the miR-122 (Sprague-Dawley rats [5]; TMPD 4 mg/kg bid subcutaneous) was 9.5 copies/20 pg input RNA and 1.8 copies/20 pg input RNA and 15.7 copies/20 pg input RNA and 11.7 copies/20 pg input RNA and 3.2 copies/20 pg input RNA. The miR-133 (Sprague-Dawley rats [6]; TMPD 2 mg/kg bid subcutaneous) was 0.9 copies/20 pg input RNA and 4.3 copies/20 pg input RNA and 9.3 copies/20 pg input RNA and 1.3 copies/20 pg input RNA and 4.1 copies/20 pg input RNA, the miR-133 (Sprague-Dawley rats [6]; TMPD 4 mg/kg bid subcutaneous) was 19.3 copies/20 pg input RNA and 63.9 copies/20 pg input RNA and 79.3 copies/20 pg input RNA and 63.8 copies/20 pg input RNA and 16.7 copies/20 pg input RNA and the “miR-133 Copies” value (Sprague-Dawley rats [7]; 250 ng total RNA input) was 4753175. The “miR-133 Ct Mean” value (Sprague-Dawley rats [7]; 250 ng total RNA input) was 23.7323 and the “miR-133 Copies/20 pg” value (Sprague-Dawley rats [7]) was 380.3 Copies/20 pg.
In the case of Gentamicin, the miR-10a (Sprague-Dawley rats [8]; Day 3, urine) is reported as 11.98 copies/20 pg input RNA and 3.51 copies/20 pg input RNA and 0.03 copies/20 pg input RNA and 0.05 copies/20 pg input RNA and 10.00 copies/20 pg input RNA, the miR-10a (Sprague-Dawley rats [8]; Day 9, urine) is reported as 0.96 copies/20 pg input RNA and 0.64 copies/20 pg input RNA and 16.88 copies/20 pg input RNA and 51.03 copies/20 pg input RNA and 6.61 copies/20 pg input RNA and 4.90 copies/20 pg input RNA and 58.70 copies/20 pg input RNA and 38.01 copies/20 pg input RNA and 25.61 copies/20 pg input RNA and the miR-10a (Sprague-Dawley rats [8]; Day 12, urine) is reported as 3.5 copies/20 pg input RNA and 9.46 copies/20 pg input RNA and 4.17 copies/20 pg input RNA and 2.13 copies/20 pg input RNA and 4.99 copies/20 pg input RNA and 3.46 copies/20 pg input RNA and 3.86 copies/20 pg input RNA and 23.75 copies/20 pg input RNA and 10.40 copies/20 pg input RNA. For the same molecule, the “Kidney Histopathology: Proximal tubule overall tissue injury (highest severity grade measured at Day 12)” value (Sprague-Dawley rats [9]) was 5.
